The values below come from ChEMBL document CHEMBL1201862, “PubChem BioAssay data set” (2004).

Active and inactive are the calls of the source. For most assays here, no stated cut-off is given here; in the data, actives have a measured EC50 and inactives only a lower limit.

The target in one assay is T1, Streptokinase A (Streptococcus pyogenes serotype M1, UniProt P10520).
T1 sequence (P10520 whole entry): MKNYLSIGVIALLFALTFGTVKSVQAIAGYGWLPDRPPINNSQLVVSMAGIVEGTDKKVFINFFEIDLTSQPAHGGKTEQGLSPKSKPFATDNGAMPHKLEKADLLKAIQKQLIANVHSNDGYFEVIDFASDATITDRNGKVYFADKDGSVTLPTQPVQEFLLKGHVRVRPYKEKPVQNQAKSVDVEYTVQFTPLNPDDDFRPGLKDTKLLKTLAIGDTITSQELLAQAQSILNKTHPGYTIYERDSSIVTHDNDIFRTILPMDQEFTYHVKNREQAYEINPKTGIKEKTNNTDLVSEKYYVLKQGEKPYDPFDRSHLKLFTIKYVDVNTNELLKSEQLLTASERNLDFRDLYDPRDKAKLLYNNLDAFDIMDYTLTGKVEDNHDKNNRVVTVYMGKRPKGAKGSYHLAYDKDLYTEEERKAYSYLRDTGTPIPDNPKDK
In words: viability-normalized secreted streptokinase activity reduction – plasminogen activation absorbance, OD405, dose response (AID 1914).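 Further: secreted streptokinase activity via plasminogen activation per viability signal from cell pellet.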 Type of assay: functional, Streptococcus pyogenes M1 GAS.

Assay [1] concerns Streptococcus sp. 'group A'. Briefly: Streptococcus pyogenes SK(-)GAS viability under kanamycin – luminescence, BacTiterGlo, confirmation, counter-screen for streptokinase expression inhibitor project, dose response (AID 1900). The assay is classed as functional, organism-based.
The next assay relates to Streptococcus. Briefly: GAS UMAA2166 growth inhibition – luminescence, BacTiterGlo, counter-screen for streptokinase expression inhibitor project, dose response (AID 1915).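 Further: potency for reduction of bacterial viability or growth.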 Type of assay: functional, organism-based.
For assay [2], the target named is T2, Heat shock factor protein 1 (Mus musculus, UniProt P38532).
T2 sequence (P38532 whole entry): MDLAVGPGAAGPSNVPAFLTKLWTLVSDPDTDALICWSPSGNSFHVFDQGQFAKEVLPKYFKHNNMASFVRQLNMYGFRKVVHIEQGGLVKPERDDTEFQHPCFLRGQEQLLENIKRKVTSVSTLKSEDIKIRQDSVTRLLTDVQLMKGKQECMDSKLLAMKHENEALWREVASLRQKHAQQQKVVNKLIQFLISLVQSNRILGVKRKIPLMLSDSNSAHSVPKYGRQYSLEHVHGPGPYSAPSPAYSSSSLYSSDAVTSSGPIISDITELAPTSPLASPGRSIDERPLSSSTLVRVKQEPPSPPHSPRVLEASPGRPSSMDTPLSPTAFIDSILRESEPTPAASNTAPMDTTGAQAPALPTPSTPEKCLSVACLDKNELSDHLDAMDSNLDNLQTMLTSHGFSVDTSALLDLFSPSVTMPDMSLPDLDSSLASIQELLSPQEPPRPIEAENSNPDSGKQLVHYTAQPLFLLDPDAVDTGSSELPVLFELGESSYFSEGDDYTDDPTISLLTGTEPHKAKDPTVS
Briefly: decrease of HSF1-responsive luciferase luminescence – cell-based, NIH3T3, dose retest, confirmation (AID 2382).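 Further: NIH3T3 fibroblasts with HSF1-driven luciferase reporter stressed by proteasome inhibitor MG132; luminescence from HSF1-driven luciferase expression after 8 hours of MG132 stress.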 Type of assay: functional.

Assay [3] can be described thus: Luminescence Cell-Based Dose Retest to Confirm Inhibitors of Cancer Stem Cells. [Related pubchem assays (depositor defined):AID2717, AID2721]. The assay is classed as functional. Particulars: Homo sapiens.
In assay [4] the target is T3, Rac GTPase-activating protein 1 (Homo sapiens, UniProt Q9H0H5).
T3 sequence (Q9H0H5 whole entry): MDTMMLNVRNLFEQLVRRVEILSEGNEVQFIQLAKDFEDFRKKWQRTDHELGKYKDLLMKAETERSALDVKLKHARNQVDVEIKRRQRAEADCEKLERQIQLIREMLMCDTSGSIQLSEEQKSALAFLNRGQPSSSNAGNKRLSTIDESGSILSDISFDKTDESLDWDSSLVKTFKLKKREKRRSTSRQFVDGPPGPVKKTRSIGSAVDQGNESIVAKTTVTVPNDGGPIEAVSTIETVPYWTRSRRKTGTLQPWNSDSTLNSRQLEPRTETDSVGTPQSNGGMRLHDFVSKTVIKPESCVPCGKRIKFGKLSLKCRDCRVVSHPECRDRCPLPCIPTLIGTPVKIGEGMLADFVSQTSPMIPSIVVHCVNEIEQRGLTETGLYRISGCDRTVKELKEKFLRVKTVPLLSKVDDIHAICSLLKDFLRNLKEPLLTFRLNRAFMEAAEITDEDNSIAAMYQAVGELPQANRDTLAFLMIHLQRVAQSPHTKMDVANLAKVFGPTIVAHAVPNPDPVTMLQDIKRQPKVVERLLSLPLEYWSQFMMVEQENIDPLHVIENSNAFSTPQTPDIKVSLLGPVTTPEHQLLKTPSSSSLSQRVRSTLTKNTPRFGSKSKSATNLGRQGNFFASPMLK
Briefly: blockers of MgcRacGAP-driven Rac1 GTP hydrolysis – biochemical, ADP Hunter fluorescence, primary and confirmatory, confirmation (AID 624330). The assay is classed as functional.

The target in assay [5] is T4, Corticotropin-releasing factor receptor 2/Corticotropin-releasing factor-binding protein (Homo sapiens, UniProt P24387+Q13324).
T4 sequence (Q13324 whole entry): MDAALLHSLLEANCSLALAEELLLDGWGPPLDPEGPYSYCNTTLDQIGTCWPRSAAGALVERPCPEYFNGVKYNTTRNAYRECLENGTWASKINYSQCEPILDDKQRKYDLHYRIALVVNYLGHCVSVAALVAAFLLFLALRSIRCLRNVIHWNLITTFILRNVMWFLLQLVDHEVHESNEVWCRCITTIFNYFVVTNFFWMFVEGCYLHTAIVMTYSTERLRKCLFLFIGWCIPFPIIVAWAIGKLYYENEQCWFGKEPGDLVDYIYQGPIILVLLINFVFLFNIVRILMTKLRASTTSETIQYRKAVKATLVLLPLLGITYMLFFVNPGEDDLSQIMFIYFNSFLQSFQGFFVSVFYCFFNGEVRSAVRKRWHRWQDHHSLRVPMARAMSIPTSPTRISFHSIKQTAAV
T4 sequence (P24387 whole entry): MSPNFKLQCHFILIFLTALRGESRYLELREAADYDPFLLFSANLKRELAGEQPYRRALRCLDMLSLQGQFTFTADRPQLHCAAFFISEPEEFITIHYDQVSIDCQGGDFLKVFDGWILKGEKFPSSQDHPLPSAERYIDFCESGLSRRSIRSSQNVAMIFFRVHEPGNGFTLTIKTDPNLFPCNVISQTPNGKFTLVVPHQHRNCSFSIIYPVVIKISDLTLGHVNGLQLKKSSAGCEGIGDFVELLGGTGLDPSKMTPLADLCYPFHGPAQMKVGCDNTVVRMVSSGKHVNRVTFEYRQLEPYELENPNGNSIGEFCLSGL
In words: activators of CRF receptor 2 with binding protein – uHTS hits, confirmation (AID 602473). Particulars: read-out: EC50_Mean. The assay is classed as functional.
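Wherever AC50 is given: cells exposed to compound for roughly 70 hours or longer before luminescence read.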

Turning to `N#Cc1c(NC(=S)NC(=O)C2CCCC2)sc2c1CCCCC2`, the EC50 on Streptokinase A was 2.9 µM (active); in assay [1], 8.59 µM (active); with Streptococcus, 27.1 µM (active).

For the compound `CCCn1cc(CN2CCC(n3nccc3NC(=O)c3ccccc3)CC2)c(C)n1`, the EC50 (at Streptokinase A; in assay [1]; in the assay on Streptococcus) was > 150 µM (not active) each time.

On to `COc1ccc(-c2c(C#N)c(N)nc3sc(C(=O)c4ccccc4)c(N)c23)cc1`, for which the EC50 is > 150 µM (not active) at Streptokinase A, 5.29 µM (active) in assay [1] and > 150 µM (not active) with Streptococcus.

On to `CCOC(=O)c1c(C)n(C)c2ccc(OC)c(NC(=O)CN3CCSCC3)c12`, for which the EC50 in assay [2] is given as > 195 µM (not active).

With `COc1ccc(CNc2nc3c(c(=O)[nH]c(=O)n3C)n2Cc2ccccc2C)cc1`, in assay [2], the EC50 is reported as > 195 µM (not active).

With `CC1(OC(=O)CCc2ccccc2)C(=O)C=C2C=C(c3ccc(C#N)cc3)N(CCc3ccccn3)C=C2C1=O` (configuration not stated), the EC50 in assay [2] is > 195 µM (not active).

For `COc1ccc(-n2c(C)cc(-c3csc(NC(=O)c4ccc(S(=O)(=O)N(C)C)cc4)n3)c2C)cc1`, in assay [2], the EC50 is reported as > 195 µM (not active).

Take `O=C(CNC(=O)C1COc2ccccc2O1)N/N=C/c1ccc(O)cc1O` (configuration not stated): in assay [3], the half-maximal activity concentration (AC50) was 6.23 µM (active). Moreover, in assay [4], the IC50 was 71.7 µM (active).

As for `Cc1ccc(-c2cc(-c3ccccc3Cl)[nH]n2)c(O)c1`, the EC50 is 20.1 µM (inconclusive) on Streptokinase A, 6.71 µM (active) in assay [1] and 13.6 µM (active) in the assay with Streptococcus.

As to `COc1cc(NS(=O)(=O)c2csc(C(N)=O)c2)cc(OC)c1`, the EC50 in assay [2] is > 195 µM (not active).

Consider `O=S(=O)(c1ccc2ccccc2c1)N1CCN(c2ccc(O)cc2)CC1`, for which the AC50 in assay [3] is 6.17 µM (active). Also, in assay [4], the IC50 is 35.8 µM (active).

Turning to `CC(C)(C)n1nnnc1CN1CCC(NC(=O)NC2CCCCC2)CC1`, the EC50 in assay [2] is 33.9 µM (active).

On to `Cc1ccsc1/C=C1\Oc2cc(O)ccc2C1=O`, for which the EC50 in assay [5] was 11.1 µM (active).

On to `c1ccc(-c2nc(C3CCCCC3)c3sccc3n2)cc1`, for which the EC50 at Streptokinase A is 23.9 µM (active); in assay [1], 4.26 µM (active); in the assay on Streptococcus, 15.5 µM (active).

Consider `Cc1cc(C(C)(C)C)cc(C)c1COC(=O)c1cccnc1`, for which the EC50 was > 150 µM (not active) at Streptokinase A, 15.8 µM (active) in assay [1] and > 150 µM (not active) in the assay on Streptococcus.

Regarding `Cc1cc(C)n(CC(C)NC(=O)c2cc(COc3ccc(F)c(F)c3)on2)n1` (configuration not stated), the EC50 in assay [2] was > 195 µM (not active).

As to `Cc1cc(C(=O)COC(=O)c2ccco2)c(C)n1Cc1ccco1`, the EC50 in assay [2] is < 0.16 µM (active).

In the case of `Nc1cc(C(F)(F)F)ccc1N1CCOCC1`, in assay [4], the IC50 is 29.9 µM (active).

For `COc1cc(OC)c(OC)cc1/C=N/N(C)c1ccccc1`, the IC50 in assay [4] is 43.7 µM (active).

Take `COc1cc(C=C2NC(=O)NC2=O)ccc1O`: in assay [4], the IC50 was 19 µM (active).

As to `O=[N+]([O-])c1ccc(-c2ccc(/C=N/Nc3nc(N4CCCC4)nc(N4CCCC4)n3)o2)cc1`, in assay [5], the EC50 is 2.8 µM (active).

As for `COc1cc(C)ccc1NC(=O)Cc1csc(NC(=O)Nc2ccccc2OC)n1`, the EC50 on Streptokinase A was 104 µM (active); in assay [1] it was 15.4 µM (active); in the assay on Streptococcus, > 150 µM (not active).

For the compound `O=C(CNCC1CCCO1)Nc1ccc(N2CCCCCC2)cc1` (configuration not stated), the IC50 in assay [4] is 62.7 µM (active).

On to `COc1ccc(CNC(=O)CN(C)Cc2ccc(C(C)(C)C)cc2)cc1`, for which the IC50 in assay [4] is 106 µM (active).

For `COc1ccc2oc(C(=O)OCC(=O)N(C)CC(=O)Nc3ccc(C)cc3)c(C)c2c1`, the EC50 in assay [2] was > 195 µM (not active).

For the compound `O=C(CCN1CCCCCC1)Nc1ccc2c(c1)OCCO2`, the IC50 in assay [4] is 338 µM (active).

`COc1ccc(CCNC(=O)Cc2cccs2)cc1`: the EC50 in assay [2] is > 195 µM (not active).

Consider `CCOC(=O)c1c(C)[nH]c(C)c1S(=O)(=O)NCCc1cccs1`, for which the EC50 in assay [2] was > 195 µM (not active).

For the compound `CCC(C(=O)NCC1CCCO1)n1nc(C)c2sc3ccccc3c2c1=O` (configuration not stated), the EC50 (at Streptokinase A; in assay [1]; with Streptococcus) was > 150 µM (not active) throughout.

With `c1ccc(OCc2nc3c4c(ncn3n2)-c2ccccc2CC42CCCC2)cc1`, the EC50 is 22 µM (active) on Streptokinase A, 114 µM (active) in assay [1] and > 150 µM (not active) with Streptococcus.

Take `C/C=C(\C)C(=O)OC1CC(C)(C)C[C@H]2C3=CC[C@@H]4[C@@]5(C)CCC(O[C@@H]6O[C@@H](C(=O)O)[C@@H](O)C(O[C@@H]7OC[C@H](O)[C@@H](O)[C@@H]7O[C@@H]7OC(CO)C(O)[C@@H](O)[C@@H]7O)C6O[C@@H]6OC(CO)C(O)C(O)C6O)[C@@](C)(CO)[C@@H]5CC[C@]4(C)[C@]3(C)CC(O)[C@@]12CO` (some centres not stated): the EC50 in assay [5] is 11.4 µM (active).

For the compound `CO[C@@]1(NC(=O)Cc2cccs2)C(=O)N2C(C(=O)O)=C(COC(N)=O)CS[C@@H]21` [CEFOXITIN SODIUM], the EC50 at Streptokinase A was > 150 µM (not active); in assay [1], 5.58 µM (active); in the assay with Streptococcus it was 16.2 µM (active).

For `CCn1c(-c2ccccc2)c[nH]c1=S`, on Streptokinase A, the EC50 is given as > 150 µM (not active).

Regarding `COc1cccc(CC(=O)N[C@@H](CCSC)c2nc3ccccc3[nH]2)c1`, the EC50 in assay [2] is > 195 µM (not active).

As to `COc1cnc(-c2ccccn2)nc1Oc1ccccc1`, the EC50 (at Streptokinase A; in assay [1]; in the assay with Streptococcus) was > 150 µM (not active) in each case.

Take `Cc1nn(-c2ccccc2)c(Cl)c1C1C(C#N)=C(N)OC2=C1C(=O)CC(C)(C)C2` (configuration not stated): the EC50 is > 150 µM (not active) on Streptokinase A, 1.4 µM (active) in assay [1] and 16.1 µM (active) in the assay on Streptococcus.
